Measured values taken from patent US5624923A, “Tricyclic diazepine vasopressin antagonists and oxytocin antagonists” (priority 1995, dated 1997).

Experiments:
Rat Hepatic V1 Receptors = biological target: T1, Rat Hepatic V1 Receptors (Rattus norvegicus, UniProt P30560); assay: Binding Assay to Rat Hepatic V1 Receptors; conditions: for IC50: rat liver membranes, read-out: V1 IC50
T1 construct: Rat liver plasma membranes expressing the vasopressin V1 receptor subtypes; from tissue; host or cells: rat liver plasma membranes
T1 sequence (P30560 whole entry): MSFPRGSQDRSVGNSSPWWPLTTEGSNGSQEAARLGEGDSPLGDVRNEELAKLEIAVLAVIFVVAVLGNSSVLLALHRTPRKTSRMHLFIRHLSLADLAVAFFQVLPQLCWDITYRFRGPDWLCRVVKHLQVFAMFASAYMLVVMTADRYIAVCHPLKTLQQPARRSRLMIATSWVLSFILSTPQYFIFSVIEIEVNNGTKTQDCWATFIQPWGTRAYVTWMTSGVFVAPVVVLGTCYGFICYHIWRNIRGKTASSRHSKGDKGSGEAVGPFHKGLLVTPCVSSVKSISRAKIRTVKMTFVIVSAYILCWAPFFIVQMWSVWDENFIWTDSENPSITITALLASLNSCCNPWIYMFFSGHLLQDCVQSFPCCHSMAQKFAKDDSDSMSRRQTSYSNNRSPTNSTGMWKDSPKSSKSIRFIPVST
Method: Binding Assay to Rat Hepatic V1 Receptors
Rat liver plasma membranes expressing the vasopressin V1 receptor subtypes are isolated by sucrose density gradient according to the method described by Lesko et al., (1973). These membranes are quickly suspended in 50.0 mM Tris.HCl buffer, pH 7.4, containing 0.2% bovine serum albumin (BSA) and 0.1 mM phenylmethylsulfonylfluoride (PMSF) and kept frozen at -70° C. until used in subsequent binding experiments. For binding experiments, the following is added to the wells of a ninety-six well format microtiter plate: 100 μl of 100.0 mM Tris.HCl buffer containing 10.0 mM MgCl2, 0.2% heat inactivated BSA and a mixture of protease inhibitors: leupeptin, 1.0 mg %; aprotinin, 1.0 mg %; 1,10-phenanthroiine,2.0 mg %; trypsin inhibitor, 10.0 mg % and 0.1 mM PMSF, 20.0 μl of [phenylalanyl-3,4,5, -^3 H] vasopressin (S.A. 45.1 Ci/mmole) at 0.8 nM, and the reaction initiated by the addition of 80 μl of tissue membranes containing 20 μg of tissue protein. The plates are kept undisturbed on the bench top at room temperature for 120 min. to reach equilibrium. Non-specific samples are assayed in the presence of 0.1 μM of the unlabeled antagonist phenylalanylvasopressin, added in 20.0 μl volume.
(§1) For test compounds, these are solubilized in 50% dimethylsulfoxide (DMSO) and added in 20.0 μl volume to a final incubation volume of 200 μl . Upon completion of binding, the content of each well is filtered off, using a Brandel® cell Harvester (Gaithersburg, Md.). The radioactivity trapped on the filter disk by the ligand-receptor complex is assessed by liquid scintillation counting in a Packard LS Counter, with an efficiency of 65% for tritium. The data are analyzed for IC50 values by the LUNDON-2 program for competition (LUNDON SOFTWARE, Ohio).

[1] = biological target: T2, Rat Kidney Medullary V2 Receptors (Rattus norvegicus, UniProt Q00788); assay: Binding Assay to Rat Kidney Medullary V2 Receptors; conditions: for IC50: rat kidney medulla membranes, read-out: V2 IC50
T2 construct: Medullary tissues from rat kidneys are dissected out; from tissue; host or cells: rat kidney medulla membranes
T2 sequence (Q00788 whole entry): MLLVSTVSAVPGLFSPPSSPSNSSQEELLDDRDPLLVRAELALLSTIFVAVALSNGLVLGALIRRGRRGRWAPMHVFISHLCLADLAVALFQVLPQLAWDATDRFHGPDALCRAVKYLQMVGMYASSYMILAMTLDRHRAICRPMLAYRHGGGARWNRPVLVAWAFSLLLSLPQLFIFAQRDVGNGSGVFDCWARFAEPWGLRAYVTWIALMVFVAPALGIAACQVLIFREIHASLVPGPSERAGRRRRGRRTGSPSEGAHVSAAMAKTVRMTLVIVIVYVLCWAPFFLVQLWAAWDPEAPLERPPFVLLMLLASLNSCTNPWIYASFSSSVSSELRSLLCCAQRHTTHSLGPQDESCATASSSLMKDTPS
Method: Binding Assay to Rat Kidney Medullary V2 Receptors
Medullary tissues from rat kidneys are dissected out, cut into small pieces and soaked in a […] sodium chloride solution containing 1.0 mM EDTA with many changes of the liquid phase, until the solution is clear of blood. The tissue is homogenized in a 0.25M sucrose solution containing 1.0 mM EDTA and 0.1 mM PMSF using a Potter-Elvehjem homogenizer with a teflon pestle. The homogenate is filtered through several layers (4 layers) of cheese cloth. The filtrate is rehomogenized using a dounce homogenizer, with a tight fitting pestle. The final homogenate is centrifuged at 1500× g for 15 min. The nuclear pellet is discarded and the supernatant fluid recentrifuged at 40,000× g for 30 min. The resulting pellet formed contains a dark inner part with the exterior., slightly pink. The pink outer part is suspended in a small amount of 50.0 mM Tris. HCl buffer, pH 7.4. The protein content is determined by the Lowry's method (Lowry et al., J. Biol. Chem., 1953). The membrane suspension is stored at -70° C. in 50.0 mM Tris HCl, containing 0.2% inactivated BSA and 0.1 mM PMSF in aliquots of 1.0 ml containing 10.0 mg protein per ml of suspension until use in subsequent binding experiments.
as §1, with “The plates are left undisturbed on the bench top for 120 min to reach equilibrium. Non-specific binding is assessed in the presence of 1.0 μM of unlabeled ligand, added in 20 μl volume. For” for “For”, “μl.” for “μl .”

Vasopressin V1 = Vasopressin V1 Antagonist Activity in Conscious Rats (vasopressin vasopressor response); assay type: in vivo, rat; design: Average Change: unit not given here; conditions: 10 mg/kg i.v., SHR
Method: Vasopressin V1 Antagonist Activity in Conscious Rats
Conscious rats are restrained in a supine position with elastic tape. The area at the base of the tail is locally anesthetized by subcutaneous infiltration with 2% procaine (0.2 ml). Using aseptic technique the ventral caudal tail artery is isolated and a cannula made of PE 10 and 20 (heat-fused) tubing is passed into the lower abdominal aorta. The cannula is secured, heparinized (1000 i.u./cc), sealed and the wound closed with one or two stitches of Dexon 4-0. The caudal vein is also cannulated in the same manner for intravenous drug administration. The duration of the surgery is approximately 5 minutes. Additional local anesthesia (2% procaine or lidocaine) is provided as needed.
The animals are placed in plastic restraining cages in an upright position. The cannula is attached to a Statham P23Db pressure transducer and pulsatile blood pressure is recorded. […] The vasopressin injections are repeated 30,60,90,120,180,240 and 300 min. later. Percentage of antagonism by the compound is calculated using the pre-drug vasopressin vasopressor response as 100%.

Structure (SMILES) | IC50 (Rat Hepatic V1 Receptors) [nM] | IC50 [1] [nM] | % Inhibition (Vasopressin V1; VAS 0.01 i.u./kg, 30 min) [%] | Average Change (Vasopressin V1; VAS 0.01 i.u./kg, 30 min) | % Inhibition (Vasopressin V1; VAS 0.01 i.u./kg, 60 min) [%] | Average Change (Vasopressin V1; VAS 0.01 i.u./kg, 60 min) | % Inhibition (Vasopressin V1; VAS 0.01 i.u./kg, 90 min) [%] | Average Change (Vasopressin V1; VAS 0.01 i.u./kg, 90 min) | % Inhibition (Vasopressin V1; VAS 0.01 i.u./kg, 120 min) [%] | Average Change (Vasopressin V1; VAS 0.01 i.u./kg, 120 min) | % Inhibition (Vasopressin V1; VAS 0.01 i.u./kg, 180 min) [%] | Average Change (Vasopressin V1; VAS 0.01 i.u./kg, 180 min) | % Inhibition (Vasopressin V1; VAS 0.01 i.u./kg, 240 min) [%] | Average Change (Vasopressin V1; VAS 0.01 i.u./kg, 240 min) | % Inhibition (Vasopressin V1; VAS 0.01 i.u./kg, 300 min) [%] | Average Change (Vasopressin V1; VAS 0.01 i.u./kg, 300 min) | % Inhibition (Vasopressin V1; VAS 0.02 i.u./kg, 30 min) [%] | Average Change (Vasopressin V1; VAS 0.02 i.u./kg, 30 min) | % Inhibition (Vasopressin V1; VAS 0.02 i.u./kg, 60 min) [%] | Average Change (Vasopressin V1; VAS 0.02 i.u./kg, 60 min) | further results
Cc1ccccc1C(=O)Nc1ccc(C(=O)N2Cc3ccc(CN4CCN(Cc5ccccc5)CC4)n3Cc3ccccc32)cc1 [Example 663, N-[4-[[3-[[4-(phenylmethyl)-1-piperazinyl]methyl]-5H-pyrrolo[2,1-c][1,4]-benzodiazepin-10(11H)-yl]carbonyl]-phenyl]-2-methylbenzamide] | 9 | 25 | – | – | – | – | – | – | – | – | – | – | – | – | – | – | – | – | – | – | –
O=C(Nc1ccc(C(=O)N2Cc3cccn3Cc3ccccc32)c(Cl)c1)c1cccc(C(F)(F)F)c1F [Example 699, N-[4-(5H-pyrrolo[2,1-c][1,4]benzodiazepin-10(11H)-ylcarbonyl)-3-chloro-phenyl]-2-fluoro-3-(trifluoromethyl)benzamide] | – | – | – | – | – | – | – | – | – | – | – | – | – | – | – | – | – | – | – | – | inhibition at 1 µM (Rat Hepatic V1 Receptors; 2 h, 1 μM, rat): 19%; inhibition at 1 µM ([1]; 1 μM, rat): 100%

Now from value to compound, other results behind:

IC50 (Rat Hepatic V1 Receptors) [nM] | IC50 [1] [nM] | Structure (SMILES) | % Inhibition (Vasopressin V1; VAS 0.01 i.u./kg, 30 min) [%] | Average Change (Vasopressin V1; VAS 0.01 i.u./kg, 30 min) | % Inhibition (Vasopressin V1; VAS 0.01 i.u./kg, 60 min) [%] | Average Change (Vasopressin V1; VAS 0.01 i.u./kg, 60 min) | % Inhibition (Vasopressin V1; VAS 0.01 i.u./kg, 90 min) [%] | Average Change (Vasopressin V1; VAS 0.01 i.u./kg, 90 min) | % Inhibition (Vasopressin V1; VAS 0.01 i.u./kg, 120 min) [%] | Average Change (Vasopressin V1; VAS 0.01 i.u./kg, 120 min) | % Inhibition (Vasopressin V1; VAS 0.01 i.u./kg, 180 min) [%] | Average Change (Vasopressin V1; VAS 0.01 i.u./kg, 180 min) | % Inhibition (Vasopressin V1; VAS 0.01 i.u./kg, 240 min) [%] | Average Change (Vasopressin V1; VAS 0.01 i.u./kg, 240 min) | % Inhibition (Vasopressin V1; VAS 0.01 i.u./kg, 300 min) [%] | Average Change (Vasopressin V1; VAS 0.01 i.u./kg, 300 min) | % Inhibition (Vasopressin V1; VAS 0.02 i.u./kg, 30 min) [%] | Average Change (Vasopressin V1; VAS 0.02 i.u./kg, 30 min) | % Inhibition (Vasopressin V1; VAS 0.02 i.u./kg, 60 min) [%] | Average Change (Vasopressin V1; VAS 0.02 i.u./kg, 60 min) | further results
37 | 17 | Cc1ccccc1C(=O)Nc1ccc(C(=O)N2Cc3ccc(Cl)n3Cc3ccccc32)cc1 [Example 41, N-[4-(3-Chloro-5H-pyrrolo[2,1c][1,4]benzodiazepine10(11H)ylcarbonyl)phenyl]-2-methylbenzamide] | 45 | 12 | 59 | 9 | 36 | 14 | 36 | 14 | 39 | 13.5 | 43 | 12.5 | 32 | 15 | 53 | 23.5 | 64 | 18 | % Inhibition (Vasopressin V1; VAS 0.02 i.u./kg, 90 min): 55%; Average Change (Vasopressin V1; VAS 0.02 i.u./kg, 90 min): 22.5; % Inhibition (Vasopressin V1; VAS 0.02 i.u./kg, 120 min): 67%; Average Change (Vasopressin V1; VAS 0.02 i.u./kg, 120 min): 16.5; % Inhibition (Vasopressin V1; VAS 0.02 i.u./kg, 180 min): 58%; Average Change (Vasopressin V1; VAS 0.02 i.u./kg, 180 min): 21; % Inhibition (Vasopressin V1; VAS 0.02 i.u./kg, 240 min): 53%; Average Change (Vasopressin V1; VAS 0.02 i.u./kg, 240 min): 23.5; % Inhibition (Vasopressin V1; VAS 0.02 i.u./kg, 300 min): 47%; Average Change (Vasopressin V1; VAS 0.02 i.u./kg, 300 min): 27
45 | 77 | CCOc1ccccc1C(=O)Nc1ccc(C(=O)N2Cc3cccn3Cc3ccccc32)cc1 [Example 84, N-[4-(5H-Pyrrolo[2,1-c][1,4]benzodiazepin-10(11H)-ylcarbonyl)phenyl]-2-ethoxybenzamide] | 77 | 10.5 | 64 | 16.5 | 72 | 13 | 58 | 19.5 | 47 | 24.5 | 43 | 26 | 51 | 22.5 | 76 | 14.5 | 45 | 33.5 | % Inhibition (Vasopressin V1; VAS 0.02 i.u./kg, 90 min): 57%; Average Change (Vasopressin V1; VAS 0.02 i.u./kg, 90 min): 26; % Inhibition (Vasopressin V1; VAS 0.02 i.u./kg, 120 min): 47%; Average Change (Vasopressin V1; VAS 0.02 i.u./kg, 120 min): 32.5; % Inhibition (Vasopressin V1; VAS 0.02 i.u./kg, 180 min): 48%; Average Change (Vasopressin V1; VAS 0.02 i.u./kg, 180 min): 31.5; % Inhibition (Vasopressin V1; VAS 0.02 i.u./kg, 240 min): 39%; Average Change (Vasopressin V1; VAS 0.02 i.u./kg, 240 min): 37; % Inhibition (Vasopressin V1; VAS 0.02 i.u./kg, 300 min): 30%; Average Change (Vasopressin V1; VAS 0.02 i.u./kg, 300 min): 43
1100 | 290 | CC(=O)c1ccc2n1Cc1ccccc1N(C(=O)c1ccc(NC(=O)c3ccc(Cl)cc3Cl)cc1)C2 [Example 670, N-[4-[(3-Acetyl-5H-pyrrolo[2,1-c][1,4]benzodiazepin-10(11H)-yl]carbonyl]phenyl]-2,4-dichlorobenzamide] | – | – | – | – | – | – | – | – | – | – | – | – | – | – | – | – | – | – | –
